Reference: PMC11062899, “De novo development of small cyclic peptides that are orally bioavailable” (Nature Chemical Biology, 2023)
Where “and” joins values, the source holds several entries; their conditions need not be identical. Equal entries are not always repeated.

Key:
[1] = Peptide stability in simulated intestinal fluid (SIF); assay type: in vitro ADME, porcine; conditions: simulated gi fluid; 8 h, 37 °C, pH 6.8; read-out: Proteolytic stability: SIF (8 h) % remaining
Summary of the method: (§1)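 Peptide from a 1 mM DMSO stock was added to fluid pre-warmed at 37 °C. SGF was pH 1.2 NaCl with porcine pepsin (0.32 g per 100 ml), and SIF was pH 6.8 potassium phosphate with porcine pancreatin (1 g per 100 ml). Supernatant peptide was quantified by LC–MS, with residual expressed as T1/T0.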

[2] = test system: porcine pancreatin; assay: as above; assay type: in vitro ADME; conditions: after 8 h vs 0 h (TIC); for SIF stability, Residual peptide Average: average of R1-R3
Summary of the method: as §1

[3] = biological target: human α-thrombin (Homo sapiens, UniProt P00734); assay: Protease inhibition, Ki for human α-thrombin (fluorogenic substrate Z-Gly-Gly-Arg-AMC); assay type: biochemical; conditions: replicates R1-R3
Summary of the method: (§2)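 Ki values come from Cheng–Prusoff correction of IC50, itself fitted by four-parameter logistic regression of activity versus a no-peptide control. Assays used 2 nM human or 3 nM rat thrombin, 50 μM Z-Gly-Gly-Arg-AMC, 30 min kinetic fluorescence at 25 °C.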

[4] = Passive artificial membrane permeability (PAMPA); conditions: for PAMPA permeability: % permeability: 50 μM, 12–18 h, acceptor concentration relative to equilibrium; for Papp at 50 μM / Permeability% Average / Permeability% R1 / Permeability% R3: PAMPA; for Papp at 50 μM: pH 7.4; for Permeability% Average: average of R1-R3; for Permeability% R1: replicate R1; for Permeability% R1 / Permeability% R3: TIC of top well sample relative to sample at theoretical equilibrium; for Permeability% R3: replicate R3
Procedure: The plate system consisted of a 96-well microwell plate (donor wells) and a 96-well insert containing a PVDF membrane coated with tri-layers of phospholipids (acceptor wells). Permeability was measured from the bottom plate (donor wells) to the top insert (acceptor wells). Cyclic peptide or reference compound solutions were prepared at a concentration of 50 μM in PBS buffer (pH 7.4) containing 5% DMSO, and 300 μl of the resulting solutions was placed into the donor wells of the PAMPA plate. Acceptor wells were prepared by adding 200 μl of PBS buffer (pH 7.4) containing 5% DMSO. The insert was stacked onto the donor plate, and the system was covered with a lid to avoid evaporation. […] Additionally, 3:2 dilutions of the 50 μM cyclic peptide stocks were prepared in PBS buffer (pH 7.4) containing 5% DMSO to yield a sample corresponding to the theoretical equilibrium between donor and acceptor wells. The samples were run on the LC–MS to measure the cyclic peptide concentration representing maximum permeability. Permeability percent was calculated using equation (4) below.4 Permeability%=PeptideAcceptor/PeptideEquilibrated×100 where [PeptideAcceptor] represents the AUC measured on the LC–MS for the acceptor wells, and [PeptideEquilibrated] represents the AUC measured for the samples diluted to the theoretical equilibrium. Detection limit for the assay was typically at 1% permeability.
Papp values were calculated using equation (5).5 Papp=VD×VA/VD+VA×A×t×−ln1−PeptideAcceptor/PeptideEquilibrated where VD and VA are the volumes of donor and acceptor wells, respectively; A is the area of the membrane; and t is the incubation time.

[5] = Metabolic stability in rat liver microsomes (RLMs); conditions: rat, microsomes
[6] = biological target: T1, porcine pepsin (Sus scrofa, UniProt P00791); assay: Peptide stability in simulated gastric fluid (SGF); assay type: in vitro ADME; conditions: for SGF stability, Residual peptide Average / SGF stability, Residual peptide: after 8 h vs 0 h (TIC); for SGF stability, Residual peptide Average: average of R1-R3; for SGF stability, Residual peptide: single replicates R1-R3; for remaining at 8 h: simulated gi fluid, 37 °C, pH 1.2, read-out: Proteolytic stability: SGF (8 h) % remaining
T1 construct: 0.32 g of porcine pepsin (Sigma-Aldrich, P7125) was dissolved under gentle agitation; purchased Sigma-Aldrich P7125
T1 sequence (P00791 60-385): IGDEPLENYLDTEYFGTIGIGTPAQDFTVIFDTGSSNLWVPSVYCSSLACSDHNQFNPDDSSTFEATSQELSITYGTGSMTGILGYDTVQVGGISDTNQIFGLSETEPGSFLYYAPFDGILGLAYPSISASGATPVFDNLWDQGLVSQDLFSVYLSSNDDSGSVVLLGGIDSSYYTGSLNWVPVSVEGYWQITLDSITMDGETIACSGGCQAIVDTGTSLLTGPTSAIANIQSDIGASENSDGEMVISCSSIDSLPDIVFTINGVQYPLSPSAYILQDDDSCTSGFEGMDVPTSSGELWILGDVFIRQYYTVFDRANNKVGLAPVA
Summary of the method: as §1

[7] = biological target: T2, rat α-thrombin (Rattus norvegicus, UniProt P18292); assay: Protease inhibition, Ki for rat α-thrombin (fluorogenic substrate Z-Gly-Gly-Arg-AMC); assay type: biochemical; conditions: replicates R1-R3
T2 construct: rat α-thrombin (Molecular Innovations) were used at final concentrations of 2 nM and 3 nM; purchased Molecular Innovations
Summary of the method: as §2

[8] = peptide 1.33E+02 uM, slope of proteolytic substrate cleavage over time
[9] = CL (ul/min/mg protein) R1, RLM CL, replicate R1
[10] = CL (ul/min/mg protein) R2, RLM CL, replicate R2
[11] = CL (ul/min/mg protein) R3, RLM CL, replicate R3
[12] = Half Life (min) R1, RLM metabolic stability, replicate R1, 0-60 min
[13] = Half Life (min) R2, RLM metabolic stability, replicate R2, 0-60 min
[14] = Half Life (min) R3, RLM metabolic stability, replicate R3, 0-60 min
[15] = Metabolic stability: RLM CL (ul/min/mg), RLMs, mean and SD, three measurements

O=C(N[C@H]1CSCc2cccc(n2)CSCCNC(=O)[C@H](Cc2c[nH]cn2)NC(=O)C2(CCCC2)NC1=O)c1ccc(Cl)s1 [compound 29]
remaining at 8 h [1]: 92 ± 16% | SIF stability, Residual peptide Average [2]: 92.07 | SIF stability, Residual peptide ([2]; single replicates R1-R3): 101.03 and 73.69 and 101.48 | Human alpha thrombin inhibition, slope normalized to DMSO ([3]; peptide 1.02E-03 uM): 85.3 and 95.8 and 95.4 | Human alpha thrombin inhibition, slope normalized to DMSO ([3]; peptide 1.04E+00 uM): 95.4 and 93.0 and 98.3 | Human alpha thrombin inhibition, slope normalized to DMSO ([3]; peptide 1.27E-04 uM): 99.0 and 98.5 and 95.5 | Human alpha thrombin inhibition, slope normalized to DMSO ([3]; peptide 1.30E-01 uM): 95.8 and 97.3 and 101.8 | Human alpha thrombin inhibition, slope normalized to DMSO [3, 8]: 27.0 and 31.2 and 38.6 | Human alpha thrombin inhibition, slope normalized to DMSO ([3]; peptide 1.63E-02 uM): 73.4 and 96.6 and 101.4 | Human alpha thrombin inhibition, slope normalized to DMSO ([3]; peptide 1.67E+01 uM): 71.8 and 71.9 and 74.8 | Human alpha thrombin inhibition, slope normalized to DMSO ([3]; peptide 2.03E-03 uM): 97.6 and 95.9 and 99.5 | Human alpha thrombin inhibition, slope normalized to DMSO ([3]; peptide 2.08E+00 uM): 93.5 and 84.6 and 95.9 | Human alpha thrombin inhibition, slope normalized to DMSO ([3]; peptide 2.54E-04 uM): 96.0 and 96.2 and 102.6 | Human alpha thrombin inhibition, slope normalized to DMSO ([3]; peptide 2.60E-01 uM): 94.7 and 95.0 and 96.9 | Human alpha thrombin inhibition, slope normalized to DMSO ([3]; peptide 3.18E-05 uM): 99.1 and 98.5 and 101.4 | Human alpha thrombin inhibition, slope normalized to DMSO ([3]; peptide 3.26E-02 uM): 99.8 and 95.1 and 95.9 | Human alpha thrombin inhibition, slope normalized to DMSO ([3]; peptide 3.33E+01 uM): 58.8 and 60.9 and 67.1 | Human alpha thrombin inhibition, slope normalized to DMSO ([3]; peptide 4.07E-03 uM): 99.1 and 95.8 and 99.3 | Human alpha thrombin inhibition, slope normalized to DMSO ([3]; peptide 4.17E+00 uM): 86.3 and 86.6 and 97.3 | Human alpha thrombin inhibition, slope normalized to DMSO ([3]; peptide 5.09E-04 uM): 101.5 and 95.7 and 97.4 | Human alpha thrombin inhibition, slope normalized to DMSO ([3]; peptide 5.21E-01 uM): 92.8 and 93.8 and 98.4 | Human alpha thrombin inhibition, slope normalized to DMSO ([3]; peptide 6.36E-05 uM): 106.0 and 98.0 and 105.2 | Human alpha thrombin inhibition, slope normalized to DMSO ([3]; peptide 6.51E-02 uM): 96.1 and 98.8 and 99.3 | Human alpha thrombin inhibition, slope normalized to DMSO ([3]; peptide 6.67E+01 uM): 48.6 and 47.5 and 55.0 | Human alpha thrombin inhibition, slope normalized to DMSO ([3]; peptide 8.14E-03 uM): 95.7 and 98.2 and 99.1 | Human alpha thrombin inhibition, slope normalized to DMSO ([3]; peptide 8.33E+00 uM): 83.7 and 83.2 and 97.0 | PAMPA permeability: % permeability [4]: 0.16 ± 0.08% | Papp at 50 μM [4]: 0.00933 ×10⁻⁶ cm/s | Permeability% Average [4]: 0.157% | Permeability% R1 [4]: 0.22% | Permeability% R3 [4]: 0.18% | microsomal CLint [5, 9]: 10.5 µL/min/mg | microsomal CLint [5, 10]: 5.63 µL/min/mg | microsomal CLint [5, 11]: 8.11 µL/min/mg | half-life [5, 12]: > 60 min | half-life [5, 13]: > 60 min | half-life [5, 14]: > 60 min | microsomal CLint [5, 15]: 8.1 ± 2 µL/min/mg | SGF stability, Residual peptide Average [6]: 100.77 | SGF stability, Residual peptide [6]: 105.91 and 102.30 and 94.11 | remaining at 8 h [6]: 101 ± 8% | Rat alpha thrombin inhibition, slope normalized to DMSO [7, 8]: 11.0 and 10.6 and 9.7 | Rat alpha thrombin inhibition, slope normalized to DMSO ([7]; peptide 1.67E+01 uM): 45.8 and 45.5 and 45.1 | Rat alpha thrombin inhibition, slope normalized to DMSO ([7]; peptide 2.08E+00 uM): 86.8 and 87.3 and 87.0 | Rat alpha thrombin inhibition, slope normalized to DMSO ([7]; peptide 3.33E+01 uM): 28.5 and 28.7 and 27.9 | Rat alpha thrombin inhibition, slope normalized to DMSO ([7]; peptide 4.17E+00 uM): 77.5 and 87.0 and 76.0 | Rat alpha thrombin inhibition, slope normalized to DMSO ([7]; peptide 6.67E+01 uM): 19.6 and 18.1 and 18.5 | Rat alpha thrombin inhibition, slope normalized to DMSO ([7]; peptide 8.33E+00 uM): 63.7 and 62.1 and 64.2

C[C@@H]1NC(=O)[C@@H](NC(=O)c2ccc(Cl)s2)CSCc2cccc(n2)CSCCNC(=O)[C@H]2CCCN(C2)C1=O [compound 30]
remaining at 8 h [1]: 98 ± 11% | SIF stability, Residual peptide Average [2]: 97.68 | Human alpha thrombin inhibition, slope normalized to DMSO ([3]; peptide 1.02E-03 uM): 97.2 and 97.6 and 106.2 | Human alpha thrombin inhibition, slope normalized to DMSO ([3]; peptide 1.04E+00 uM): 103.4 and 89.3 and 97.4 | Human alpha thrombin inhibition, slope normalized to DMSO ([3]; peptide 1.27E-04 uM): 101.8 and 96.4 and 101.4 | Human alpha thrombin inhibition, slope normalized to DMSO ([3]; peptide 1.30E-01 uM): 98.9 and 98.3 and 91.7 | Human alpha thrombin inhibition, slope normalized to DMSO [3, 8]: 9.7 and 9.3 and 8.4 | Human alpha thrombin inhibition, slope normalized to DMSO ([3]; peptide 1.63E-02 uM): 113.9 and 97.8 and 107.6 | Human alpha thrombin inhibition, slope normalized to DMSO ([3]; peptide 1.67E+01 uM): 44.4 and 39.7 and 38.9 | Human alpha thrombin inhibition, slope normalized to DMSO ([3]; peptide 2.03E-03 uM): 93.3 and 95.3 and 103.2 | Human alpha thrombin inhibition, slope normalized to DMSO ([3]; peptide 2.08E+00 uM): 83.8 and 81.0 and 85.8 | Human alpha thrombin inhibition, slope normalized to DMSO ([3]; peptide 2.54E-04 uM): 101.0 and 97.7 and 100.6 | Human alpha thrombin inhibition, slope normalized to DMSO ([3]; peptide 2.60E-01 uM): 90.3 and 93.2 and 100.5 | Human alpha thrombin inhibition, slope normalized to DMSO ([3]; peptide 3.18E-05 uM): 99.8 (2×) and 101.6 | Human alpha thrombin inhibition, slope normalized to DMSO ([3]; peptide 3.26E-02 uM): 100.2 and 97.8 and 102.0 | Human alpha thrombin inhibition, slope normalized to DMSO ([3]; peptide 3.33E+01 uM): 26.4 and 25.5 and 27.5 | Human alpha thrombin inhibition, slope normalized to DMSO ([3]; peptide 4.07E-03 uM): 95.7 and 98.6 and 101.8 | Human alpha thrombin inhibition, slope normalized to DMSO ([3]; peptide 4.17E+00 uM): 69.5 and 72.8 and 72.6 | Human alpha thrombin inhibition, slope normalized to DMSO ([3]; peptide 5.09E-04 uM): 102.0 and 99.0 and 102.1 | Human alpha thrombin inhibition, slope normalized to DMSO ([3]; peptide 5.21E-01 uM): 99.3 and 95.3 and 96.7 | Human alpha thrombin inhibition, slope normalized to DMSO ([3]; peptide 6.36E-05 uM): 99.5 and 97.8 and 101.1 | Human alpha thrombin inhibition, slope normalized to DMSO ([3]; peptide 6.51E-02 uM): 101.0 and 91.1 and 103.2 | Human alpha thrombin inhibition, slope normalized to DMSO ([3]; peptide 6.67E+01 uM): 19.9 and 15.0 and 20.8 | Human alpha thrombin inhibition, slope normalized to DMSO ([3]; peptide 8.14E-03 uM): 100.5 and 116.6 and 101.1 | Human alpha thrombin inhibition, slope normalized to DMSO ([3]; peptide 8.33E+00 uM): 63.9 and 57.2 and 56.3 | PAMPA permeability: % permeability [4]: 27 ± 1% | Papp at 50 μM [4]: 2.14 ×10⁻⁶ cm/s | Permeability% Average [4]: 27.4% | Permeability% R1 [4]: 28.09% | Permeability% R3 [4]: 26.42% | microsomal CLint [5, 9]: 79.9 µL/min/mg | microsomal CLint [5, 10]: 59.7 µL/min/mg | microsomal CLint [5, 11]: 75.2 µL/min/mg | half-life [5, 12]: 17.3 min | half-life [5, 13]: 23.2 min | half-life [5, 14]: 18.4 min | half-life ([5]; Metabolic stability: Half life T1/2 (min), RLMs, mean and SD, three measurements): 19.7 ± 2.5 min | microsomal CLint [5, 15]: 72 ± 9 µL/min/mg | SGF stability, Residual peptide Average [6]: 90.24 | SGF stability, Residual peptide [6]: 101.78 and 81.27 and 87.66 | remaining at 8 h [6]: 90 ± 10% | Rat alpha thrombin inhibition, slope normalized to DMSO [7, 8]: 3.2 and 3.1 and 10.4 | Rat alpha thrombin inhibition, slope normalized to DMSO ([7]; peptide 1.67E+01 uM): 16.1 and 15.2 and 20.3 | Rat alpha thrombin inhibition, slope normalized to DMSO ([7]; peptide 2.08E+00 uM): 58.5 and 59.8 and 48.9 | Rat alpha thrombin inhibition, slope normalized to DMSO ([7]; peptide 3.33E+01 uM): 8.9 (2×) and 15.3 | Rat alpha thrombin inhibition, slope normalized to DMSO ([7]; peptide 4.17E+00 uM): 40.8 and 42.9 and 35.9 | Rat alpha thrombin inhibition, slope normalized to DMSO ([7]; peptide 6.67E+01 uM): 5.0 and 4.9 and 12.1 | Rat alpha thrombin inhibition, slope normalized to DMSO ([7]; peptide 8.33E+00 uM): 24.7 and 27.2 and 32.3
